Data on 21 compounds can be found in patent US9546157B2, “Asymmetric piperidinyl-substituted ureas as medicines” (Helsinn Healthcare SA, priority 2014, dated 2017).

The target in data set [1] is T1, GHSR1a (Homo sapiens, UniProt Q92847).
T1 construct: expressed in transfected cells; host or cells: HEK293
As to the kind of experiment: Calcium FLIPR assay, GHSR-1a antagonism (reduction of ghrelin response). In kind it is cell-based. To be noted: HEK293/GHSR1a cells, ghrelin 10 nM. A digest of the protocol:
(§1)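 Cells stably carrying human GHSR1a were plated a day ahead, dye-loaded, then given test compound. Agonist activity was the calcium rise over 2 minutes after compound addition at t=20 sec; antagonist activity was the reduction of the response to 10 nM ghrelin added together with compound.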

Data set [2] addresses T1, GHSR1a. The experiment in a line: Calcium FLIPR assay, GHSR-1a agonism. The data set is classed as cell-based. Set-up: Emax: unit not given here. To be noted: HEK293/GHSR1a cells. A digest of the protocol: as §1
Data set [3] in a line: Metabolic Stability (H = Human). The data set is classed as in vitro ADME.
Data set [4] is described as follows: Metabolic Stability (M = Mouse). The data set is classed as in vitro ADME.

T1 sequence (Q92847 whole entry): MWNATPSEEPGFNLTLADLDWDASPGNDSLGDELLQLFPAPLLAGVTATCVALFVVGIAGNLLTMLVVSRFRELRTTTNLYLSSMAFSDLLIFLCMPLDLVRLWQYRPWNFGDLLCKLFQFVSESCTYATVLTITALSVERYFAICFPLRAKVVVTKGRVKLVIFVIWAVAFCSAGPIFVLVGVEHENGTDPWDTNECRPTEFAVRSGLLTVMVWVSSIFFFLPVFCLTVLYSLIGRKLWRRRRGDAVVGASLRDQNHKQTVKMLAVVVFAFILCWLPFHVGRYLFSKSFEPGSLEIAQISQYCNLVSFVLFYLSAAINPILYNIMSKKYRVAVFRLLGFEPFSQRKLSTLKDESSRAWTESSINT

In general, IC50 refers to the concentration that inhibits the measured activity by half. Usually EC50 stands for the concentration that produces a half-maximal response. As to `CN1CCC(N(C)C(=O)NC(C#N)c2ccc(-c3ccsc3)c(Cl)c2Cl)CC1` (stereo not shown) [Compound H0644, 3-(cyano(2,3-dichloro-4-(thiophen-3-yl)phenyl)methyl)-1-methyl-1-(1-methylpiperidin-4-yl)urea], the IC50 in data set [1] amounted to 6 nM. Besides, in data set [2], the EC50 worked out at 28 nM and the Emax was 2822. For the same compound, the “Metabolic Stability H” value in data set [3] was “Medium H Medium M”. For the same compound, the “Metabolic Stability M” value in data set [4] is “Medium H Medium M”.
As for `CCC(NC(=O)N(C)[C@@H]1CCN(C)CC1(C)C)c1ccc(-c2cnccn2)c(Cl)c1Cl` (stereo partly drawn) [Compound H0858, 3-(1-(2,3-dichloro-4-(pyrazin-2-yl)phenyl)propyl)-1-methyl-1-((R)-1,3,3-trimethylpiperidin-4-yl)urea], the IC50 in data set [1] came out at 8 nM. In addition, the EC50 in data set [2] is more than 30000 nM. Further, the “Metabolic Stability H” value in data set [3] is given as “Medium H Medium M”. Further, the “Metabolic Stability M” value in data set [4] was “Medium H Medium M”.
In the case of `CC(NC(=O)N(C)C1CCN(C)C1)c1ccc(-c2cn[nH]c2)c(Cl)c1Cl` (stereo not shown) [Compound H0529, 3-(1-(2,3-dichloro-4-(1H-pyrazol-4-yl)phenyl)ethyl)-1-methyl-1-(1-methylpyrrolidin-3-yl)urea], the IC50 in data set [1] stood at 12 nM. In addition, the EC50 in data set [2] is more than 30000 nM. Further, the “Metabolic Stability H” value in data set [3] was “Medium”. In addition, the “Metabolic Stability M” value in data set [4] is listed as “Poor”.
As for `CCC(NC(=O)N(C)C1CCN(C)C1)c1ccc(-c2cnccn2)c(Cl)c1Cl` (stereo not shown) [Compound H0857, 3-(1-(2,3-dichloro-4-(pyrazin-2-yl)phenyl)propyl)-1-methyl-1-(1-methylpyrrolidin-3-yl)urea], the IC50 in data set [1] was 10 nM. Moreover, in data set [2], the EC50 is more than 30000 nM. The “Metabolic Stability H” value in data set [3] was “Medium”. Besides, the “Metabolic Stability M” value in data set [4] is listed as “Low”.
Taken in the same sequence, the figures for `CC(NC(=O)N(C)C1CCN(C)CC1)c1ccc(-c2cncc(-c3cncs3)c2)c(Cl)c1Cl` (stereo not shown) [Compound H0716, 3-(1-(2,3-dichloro-4-(5-(thiazol-5-yl)pyridin-3-yl)phenyl)ethyl)-1-methyl-1-(1-methylpiperidin-4-yl)urea] were 15 nM, more than 30000 nM, “Low” and “Medium”.
The matching figures for `CC(NC(=O)N(C)C1CCN(C)CC1)c1ccc(-c2cncc(C=O)c2)c(Cl)c1Cl` (stereo not shown) [Compound H0642, 3-(1-(2,3-dichloro-4-(5-formylpyridin-3-yl)phenyl)ethyl)-1-methyl-1-(1-methylpiperidin-4-yl)urea]: 78 nM, more than 30000 nM, “Very low” and “Very Low”.
For `COc1ccc(-c2ccc(C(C)NC(=O)N(C)C3CCN(C)CC3)c(Cl)c2Cl)cc1` (stereo not shown) [Compound H0508, 3-(1-(2,3-dichloro-4′-methoxy-[1,1′-biphenyl]-4-yl)ethyl)-1-methyl-1-(1-methylpiperidin-4-yl)urea], in data set [1], the IC50 was 76 nM. In addition, in data set [2], the EC50 is more than 30000 nM. Besides, the “Metabolic Stability H” value in data set [3] is recorded as “Medium”. In addition, the “Metabolic Stability M” value in data set [4] was “High”.
The matching figures for `CN1CCC(N(C)C(=O)NC(COCc2cccc(CO)c2)c2ccc(-c3cncnc3)c(Cl)c2Cl)CC1` (stereo not shown) [Compound H0620, 3-(1-(2,3-dichloro-4-(pyrimidin-5-yl)phenyl)-2-((3-(hydroxymethyl)benzyl)oxy)ethyl)-1-methyl-1-(1-methylpiperidin-4-yl)urea]: 32 nM, more than 30000 nM, “Poor H Poor M” and “Poor H Poor M”.
As for `CC(NC(=O)N(C)C1CCN(C)CC1)c1ccc(CC#N)c(Cl)c1Cl` (stereo not shown) [Compound H0630, 3-(1-(2,3-dichloro-4-(cyanomethyl)phenyl)ethyl)-1-methyl-1-(1-methylpiperidin-4-yl)urea], the IC50 in data set [1] amounted to 3 nM. Further, in data set [2], the EC50 is 9 nM and the Emax is 4714. Also, in data set [3], the “Metabolic Stability H” value is “High H High M”. Moreover, in data set [4], the “Metabolic Stability M” value is reported as “High H High M”.
`CN1CCC(N(C)C(=O)NC(CC2CC2)c2ccc(-c3cccnc3)c(Cl)c2Cl)CC1` (stereo not shown) [Compound H0720, 3-(2-cyclopropyl-1-(2,3-dichloro-4-(pyridin-3-yl)phenyl)ethyl)-1-methyl-1-(1-methylpiperidin-4-yl)urea]: the IC50 in data set [1] turned out to be 8 nM. Moreover, the EC50 in data set [2] is more than 30000 nM. Moreover, the “Metabolic Stability H” value in data set [3] is “Medium”. The “Metabolic Stability M” value in data set [4] is reported as “High”.
The matching figures for `CCN(C(=O)N[C@@H](C)c1ccc(-c2cnccn2)c(Cl)c1Cl)C1CCN(C)CC1` [Compound H0889, (S)-3-(1-(2,3-dichloro-4-(pyrazin-2-yl)phenyl)ethyl)-1-ethyl-1-(1-methylpiperidin-4-yl)urea]: 6 nM, more than 30000 nM, “High H High M” and “High H High M”.
Taken in the same sequence, the figures for `CC(NC(=O)N(Cc1ccc(CO)cc1)C1CCN(C)CC1)c1ccc(-c2cccnc2)c(Cl)c1Cl` (stereo not shown) [Compound H0546, 3-(1-(2,3-dichloro-4-(pyridin-3-yl)phenyl)ethyl)-1-(4-(hydroxymethyl)benzyl)-1-(1-methylpiperidin-4-yl)urea] were 8 nM, more than 30000 nM, “Medium H Medium M” and “Medium H Medium M”.
The matching figures for `CC(NC(=O)N(C)C1CCN(C)CC1)c1ccc(CO)c(Cl)c1Cl` (stereo not shown) [Compound H0633, 3-(1-(2,3-dichloro-4-(hydroxymethyl)phenyl)ethyl)-1-methyl-1-(1-methylpiperidin-4-yl)urea]: 3 nM, 15 nM, “High H High M” and “High H High M”.
With `C[C@H](NC(=O)N(C)C1CCN(C)C1)c1ccc(-c2cncc(F)n2)c(Cl)c1Cl` (stereo partly drawn) [Compound H0872, 3-((S)-1-(2,3-dichloro-4-(6-fluoropyrazin-2-yl)phenyl)ethyl)-1-methyl-1-(1-methylpyrrolidin-3-yl)urea], in data set [1], the IC50 was determined as 6 nM. In addition, in data set [2], the EC50 is more than 30000 nM. Also, in data set [3], the “Metabolic Stability H” value is “High”. The “Metabolic Stability M” value in data set [4] is reported as “medium”.
`CC(NC(=O)N(O)C1CCN(C)CC1)c1ccc(-c2cccs2)c(Cl)c1Cl` (stereo not shown) [Compound H0627, 3-(1-(2,3-dichloro-4-(thiophen-2-yl)phenyl)ethyl)-1-hydroxy-1-(1-methylpiperidin-4-yl)urea]: the IC50 in data set [1] is 4 nM. Moreover, in data set [2], the EC50 was found to be 1 nM and the Emax turned out to be 5289. For the same compound, the “Metabolic Stability H” value in data set [3] was “High H High M”. The “Metabolic Stability M” value in data set [4] is reported as “High H High M”.
`CC(NC(=O)N(C)C1CCN(C)CC1)c1ccc(-c2cccs2)c2ccccc12` (stereo not shown) [Compound H0575, 1-methyl-1-(1-methylpiperidin-4-yl)-3-(1-(4-(thiophen-2-yl)naphthalen-1-yl)ethyl)urea]: the IC50 in data set [1] amounted to 32 nM. Moreover, in data set [2], the EC50 is 28 nM and the Emax is 3533. Besides, the “Metabolic Stability H” value in data set [3] is “Medium H Medium M”. Moreover, in data set [4], the “Metabolic Stability M” value is reported as “Medium H Medium M”.
For `CC(NC(=O)N(C)C1CCN(C)CC1)c1ccc(-c2cncc(C3=CCCC3)c2)c(Cl)c1Cl` (stereo not shown) [Compound H0705, 3-(1-(2,3-dichloro-4-(5-(cyclopent-1-en-1-yl)pyridin-3-yl)phenyl)ethyl)-1-methyl-1-(1-methylpiperidin-4-yl)urea], in data set [1], the IC50 turned out to be 53 nM. Further, in data set [2], the EC50 was more than 30000 nM. In addition, in data set [3], the “Metabolic Stability H” value is reported as “High H High M”. Moreover, in data set [4], the “Metabolic Stability M” value is “High H High M”.
As for `CN1CCC(N(C)C(=O)NC(COCc2cccc(CO)c2)c2ccc(-c3ccsc3)c(Cl)c2Cl)CC1` (stereo not shown) [Compound H0594, 3-(1-(2,3-dichloro-4-(thiophen-3-yl)phenyl)-2-((3-(hydroxymethyl)benzyl)oxy)ethyl)-1-methyl-1-(1-methylpiperidin-4-yl)urea], the IC50 in data set [1] was 54 nM. Besides, in data set [2], the EC50 was more than 30000 nM. For the same compound, the “Metabolic Stability H” value in data set [3] is “Poor”. Besides, the “Metabolic Stability M” value in data set [4] is on record as “Medium”.
Taken in the same sequence, the figures for `CC(NC(=O)N(C)C1CCN(C)CC1)c1ccc(-c2c[nH]cn2)c(Cl)c1Cl` (stereo not shown) [Compound H0542, 3-(1-(2,3-dichloro-4-(1H-imidazol-4-yl)phenyl)ethyl)-1-methyl-1-(1-methylpiperidin-4-yl)urea] were 18 nM, 15 nM, “High H High M” and “High H High M”.
Taken in the same sequence, the figures for `CC(NC(=O)N(C)C1CCN(C)CC1C)c1ccc(-c2cccnc2)c(Cl)c1Cl` (stereo not shown) [Compound H0527, 3-(1-(2,3-dichloro-4-(pyridin-3-yl)phenyl)ethyl)-1-(1,3-dimethylpiperidin-4-yl)-1-methylurea] were 19 nM, more than 30000 nM, “Medium H Medium M” and “Medium H Medium M”.
As to `CC(NC(=O)N(C)C1CCN(C)CC1C)c1ccc(-c2cn[nH]c2)c(Cl)c1Cl` (stereo not shown) [Compound H0528, 3-(1-(2,3-dichloro-4-(1H-pyrazol-4-yl)phenyl)ethyl)-1-(1,3-dimethylpiperidin-4-yl)-1-methylurea], the IC50 in data set [1] is 34 nM. Further, in data set [2], the EC50 is more than 30000 nM. Besides, the “Metabolic Stability H” value in data set [3] is on record as “Medium H Medium M”. Further, the “Metabolic Stability M” value in data set [4] is listed as “Medium H Medium M”.
